Results on two compounds are retold here after patent publication US20250228840A1, “METHODS OF TREATING SJÖGREN-LARSSEN SYNDROME” (Aldeyra Therapeutics, Inc., priority 2022, published 2025).

The test system of data set [1] is allergic conjunctivitis and dry eye. The note with it: ophthalmic preparation, Phase-2; cited from earlier work.
For a further data set, the system named is SLS subjects. As to conditions: applied topically as a cream; cited from earlier work.
A short description of another data set: Oral absorption. The class given is in vivo. The text has this:
(§1) Aldehydes are toxic molecules due to their propensity to covalently attach to proteins and other target molecules containing certain reactive chemical groups. Drugs that detoxify reactive aldehydes are under development for various inflammatory conditions characterized by the excessive formation of aldehydes. […] This clinical trial will investigate the safety and biochemical efficacy of systemic administration of Compound 1 in SLS.

Data set [2] deals with cultured Chinese hamster cells lacking FALDH. Description: Fatty aldehyde adducts, cytotoxicity and metabolism in cultured FALDH-deficient cells. The class given is cell-based.
Excerpt: as §1
There are no satisfactory animal models of SLS, thereby limiting preclinical testing to in vitro cellular studies. […] The detoxified ADX-102-fatty aldehyde by-products are degraded intracellularly. Thus, treatment of cultured FALDH-deficient cells with ADX-102 bypasses the lost catabolic function of FALDH on aldehydes in SLS and diminishes aldehyde load.

Data set [3] shares this test system. The note with it: cultured FALDH-deficient cells; long-chain (C16-C18) fatty aldehydes; cited from earlier work.
Data set [4] in a line: Exemplary PK results after oral administration of I-1 unit dosage form, daily dose 20-1200 mg (Table 2). The data set is classed as in vivo. The note with it: human subject. The method, then:
In some embodiments, a unit dosage form described herein that comprises compound I-1, or a pharmaceutically acceptable salt thereof, upon oral administration to a human subject in a daily dose of 20 mg, 50 mg, 100 mg, 200 mg, 400 mg, 700 mg, or 1200 mg (or about such doses, as the case may be), provides a pharmacokinetic result shown in the table below:
In some embodiments, the human subject is a healthy human subject.
In some embodiments, the pharmacokinetic result described herein is obtained in a healthy human subject.

“Also recorded” adds a separate entry of the source.

For `CC(C)(O)c1nc2ccc(Cl)cc2cc1N` [ADX-102, 2-[3-amino-6-chloro-quinolin-2-yl]-propan-2-ol], in data set [1], the “clinical activity in allergic conjunctivitis and dry eye” value is listed as “beneficial activity”. Besides, the ichthyosis entry in the data set on SLS subjects was “improve ichthyosis”. In the data set “Oral absorption”, the oral absorption entry was “poor absorption qualities”. In addition, in data set [2], the “fatty aldehyde cytotoxicity and apoptosis” value was “mitigate aldehyde cytotoxicity; also recorded: reverses fatty aldehyde cytotoxicity and apoptosis”. Also, the “metabolism of fatty aldehyde to fatty alcohol” value in data set [2] (C18:0, octadecanal, data not shown) is “prevent metabolism of fatty aldehydes to fatty alcohols; also recorded: blocks the metabolism of fatty aldehyde (C18:0, octadecanal) to fatty alcohol”. Besides, the “effect on synthesis or degradation of fatty alcohol itself” value in data set [2] (data not shown) is “no effect”. In addition, in data set [3], the “formation of fatty aldehyde covalent adducts with PE (NAPE) / cellular lipids” value is on record as “block the formation of long-chain (C16-C18) fatty aldehyde adducts with cellular lipids; also recorded: prevents fatty aldehydes from forming covalent adducts with PE (NAPE)”.
By Cmax is commonly meant the peak of the concentration-time curve. With `CC(C)(O)c1nc2ccccc2cc1N` [Compound I-1], the oral absorption entry in “Oral absorption” is on record as “well-absorbed orally”. Moreover, the AUCinf amounted to 50.0 ng·h/mL in data set [4] (daily dose 20 mg (or about)); 156 ng·h/mL in data set [4] (daily dose 50 mg (or about)); 433 ng·h/mL in data set [4] (daily dose 100 mg (or about)); 1140 ng·h/mL in data set [4] (daily dose 200 mg (or about)); 2730 ng·h/mL in data set [4] (daily dose 400 mg (or about)); 6710 ng·h/mL in data set [4] (daily dose 700 mg (or about)). In data set [4] (daily dose 1200 mg (or about)), this compound came in with an AUCinf of 14500 ng·h/mL. In addition, the Cmax in data set [4] (daily dose 20 mg (or about)) is reported as 26.4 ng/mL; in data set [4] (daily dose 50 mg (or about)), 56.7 ng/mL; in data set [4] (daily dose 100 mg (or about)), 140 ng/mL; in data set [4] (daily dose 200 mg (or about)), 459 ng/mL; in data set [4] (daily dose 400 mg (or about)) it was 869 ng/mL; in data set [4] (daily dose 700 mg (or about)), 2020 ng/mL. This compound also showed a Cmax in data set [4] (daily dose 1200 mg (or about)) of 4220 ng/mL. Moreover, the t1/2 in data set [4] (daily dose 100 mg (or about)) was roughly 3.52 h; in data set [4] (daily dose 200 mg (or about)), roughly 6.04 h; in data set [4] (daily dose 400 mg (or about)), roughly 6.15 h; in data set [4] (daily dose 700 mg (or about)), roughly 7.33 h; in data set [4] (daily dose 1200 mg (or about)), roughly 7.69 h.
